Data published in PubChem BioAssay AID2060510 (Molecular Pharmacology Branch, DTP, NCI, 2025).
Where “and” joins values, the source holds several entries; their conditions need not be identical. Identical values can stand only once.

Tested on: 439559-082-T-J2-PDC spheroids viability
Experiment: Anticancer human tumor 439559-082-T-J2-PDC patient-derived colon adenocarcinoma cell line growth inhibition [GQUAD]
Conditions: for viability, T/C: stronger effect = lower value
Source text: DNA G-quadruplex Stabilizer Agents in Combinations in Complex Spheroids
A high-throughput screen of multi-cell type tumor spheroids was designed to identify active combinations of DNA G-quadruplex stabilizer agents and targeted small molecules. Complex spheroids include a stromal component modeled by human endothelial cells (HUVEC) and fibroblasts modeled by human mesenchymal stem cells (MSCs). The concentration ranges selected for each drug and investigational agent were based upon clinically achievable concentrations if the clinical Cmax of the agent was known.
Compounds. The drugs and investigational agents: pidnarulex (CX-5461; NSC782164), APTO-253 (NSC789042), BRACO-19 (NSC847499), peposertib (NSC802822), ceralasertib (NSC780249), elimusertib (NSC800525), camonsertib (NSC841442), AZD-1390 (NSC803789), olaparib (NSC753686), talazoparib (NSC767125), ART-558 (NSC835418), sotorasib (NSC818433), MRTX-1133 (NSC836407), SN-38 (NSC673596), topotecan (NSC609699), etoposide (NSC141540), doxorubicin (NSC123127), gemcitabine (NSC613327), 5-fluorouracil (NSC19893), paclitaxel (NSC125973), vemurafenib (NSC761431), panobinostat (NSC761190), R-306465 (JNJ-16241199; NSC773264), adavosertib (NSC754352), TP-3654 (NSC805149), carboplatin (NSC241240), KSQ-4279 (NSC840948), and staurosporine (NSC755774) were obtained from the National Cancer Institute (NCI) Developmental Therapeutics Program Chemical Repository (34). The FDA-approved anticancer drug set is available from the NCI Developmental Therapeutics Program. […] The stock solutions were prepared in dimethyl sulfoxide (DMSO, Sigma-Aldrich, St. Louis, MO, cat. D2650) at 800-fold the tested concentration and stored at -70 degrees C prior to their use. All drugs and investigational agents were tested over a range starting from a high concentration at or near the clinical Cmax and decreasing in half-log increments. If the clinical Cmax for an agent had not been determined, the highest concentration tested was 10 microM.
2.3 Cell Culture. All cells were maintained in an incubator at 37 degrees C and 5% CO2 with 95% humidity. The PDC lines were cultured according to standard operating procedures established by the NCI PDMR. All PDCs were thawed and cultured in Matrigel-coated flasks prepared with a working solution of 1X Ham's F-12 nutrient mix, without supplementation (Invitrogen, cat. 11765054), 100 U/mL penicillin-streptomycin (Invitrogen, cat. 15140122), and 2.5% Matrigel (Corning Inc., cat. 354248) for the first three passages. The 857933-349-R-J2-PDC line was cultured in 6C/Colon 1B media, which includes advanced DMEM/F-12 (Thermo Fisher Scientific, cat. 12634028), 10 mM HEPES (Thermo Fisher Scientific, cat. 15630080), 1X GlutaMAX supplement (Thermo Fisher Scientific, cat. 35050061), 0.1 mg/mL primocin (InvivoGen, cat. ant-pm-2), 10% defined fetal bovine serum, heat inactivated (HyClone Laboratories Inc., cat. SH30070.03HI), 50% L-WRN conditioned media (ATCC, cat. CRL-3276), 1.25 mM N-Acetyl-L-cysteine (Sigma-Aldrich, cat. A9165), 10 mM nicotinamide (Sigma-Aldrich, cat. N0636), 1X B-27 supplement (Thermo Fisher Scientific, cat. 17504044), 1X N-2 supplement (Thermo Fisher Scientific, cat. 17502048), 10 microM Y-27632 dihydrochloride (Tocris Bioscience, cat. 1254), and 50 ng/mL human EGF recombinant protein (Thermo Fisher Scientific, cat. PHG0311). The 485176-168-R4-J1-PDC line was cultured in Panc media, which includes all 6C/Colon 1B media components plus 100 ng/mL human FGF-10 (Thermo Fisher Scientific, cat. 100-26), 500 nM SB-431542 (Selleckchem, cat. S1067), and gastrin (Tocris, cat. 3006).
[…]

[1] = compound alone, run of 04/22/2024
[2] = compound alone, run of 04/16/2024
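Note: spheroids exposed to the agents for 7 days before readout.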
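Throughout, for viability, T/C: percent of luminescence signal in DMSO vehicle wells taken as 100% viability.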

SMILES | viability, T/C (compound 0.0316 µM) | viability, T/C (compound 0.1 µM) | viability, T/C (compound 0.316 µM) | viability, T/C (compound 1 µM) | viability, T/C (compound 3.16 µM) | viability, T/C (compound 10 µM) | IC50 (curve of compound) | viability, T/C (compound 0.000999 µM) | viability, T/C (compound 0.00316 µM) | viability, T/C (compound 0.00999 µM) | viability, T/C (compound 0.0999 µM) | IC50 [1] | IC50 [2]
C=CC(=O)N1CCN(c2nc(=O)n(-c3c(C)ccnc3C(C)C)c3nc(-c4c(O)cccc4F)c(F)cc23)C(C)C1 (configuration not stated) | 101% (2×) and 96.5% | 101% and 91.7% and 89.6% | 94.3% and 91.1% and 108% | 110% and 96.3% and 112% | 99% and 108% and 107% | 98.8% and 96.6% and 105% | > 10000 nM | – | – | – | – | – | –
CC(C)n1c(=O)n(C)c2cnc3cc(F)c(-c4ccc(OCCCN5CCCCC5)nc4)cc3c21 | 110% and 92.9% and 102% | 103% and 115% and 91.5% | 117% and 111% and 110% | 107% and 114% and 98.3% | 116% and 117% and 110% | 95.4% and 101% and 102% | > 10000 nM | – | – | – | – | – | –
CC1COCCN1c1cc(-c2ccnn2C)c2ccnc(-c3ccn[nH]3)c2n1 (configuration not stated) | 97.7% and 97.6% and 93.5% | 80.6% and 68.1% and 73.8% | 46.8% and 35.7% and 39.2% | 34.3% and 35.7% and 31.6% | 37.7% and 30.7% and 31.6% | 33.5% and 28.8% and 34% | 280 nM and 192 nM and 220 nM | – | – | – | – | – | –
CC1COCCN1c1cc(C2(O)CC3CCC(C2)O3)c2cnn(-c3ccn[nH]3)c2n1 (configuration not stated) | 88.9% and 93.8% and 110% | 94.8% and 93.7% and 78.8% | 68.1% and 75.7% and 73.3% | 52.4% and 55.8% and 50.7% | 39% and 40.9% and 32.5% | 33.2% and 39.8% and 28.5% | 1030 nM and 1520 nM | – | – | – | – | – | –
CC1COCCN1c1cc(C2(S(C)(=N)=O)CC2)nc(-c2ccnc3[nH]ccc23)n1 (configuration not stated) | 97.7% and 98.8% and 96.5% | 111% and 89.2% and 102% | 93.4% and 106% and 88.7% | 101% and 86.2% and 94% | 92.3% and 87.4% and 80.1% | 68.4% and 57.7% and 60.7% | > 10000 nM | – | – | – | – | – | –
CC[C@@]1(O)C(=O)OCc2c1cc1n(c2=O)Cc2cc3c(CN(C)C)c(O)ccc3nc2-1 | 84.6% and 98% and 89.7% | – | 79% and 81.7% and 75.3% | – | – | – | > 316 nM | 95.3% and 92.3% and 106% | 105% and 96.2% and 94.6% | 96% and 97.9% and 95.6% | 88.7% and 87.6% and 101% | – | –
CCc1c2c(nc3ccc(O)cc13)-c1cc3c(c(=O)n1C2)COC(=O)[C@]3(O)CC | 71.1% and 81.8% and 69.5% | – | 47.6% and 44.7% and 36.1% | – | – | – | 272 nM and 229 nM and 115 nM | 92.9% and 101% and 105% | 88.5% and 90.5% and 87.7% | 78.4% and 78.2% and 84.3% | 61.7% and 59.3% and 49.4% | – | –
CN(C)c1ccc(Nc2c3ccc(NC(=O)CCN4CCCC4)cc3nc3cc(NC(=O)CCN4CCCC4)ccc23)cc1 | 103% [middle of 12 runs] | 99.9% [middle of 12 runs] | 101% [middle of 12 runs] | – | 104% [middle of 12 runs] | 101% [middle of 12 runs] | – | – | – | – | – | > 10000 nM | –
COc1cc(C2c3cc4c(cc3C(OC3OC5COC(C)OC5C(O)C3O)C3COC(=O)C23)OCO4)cc(OC)c1O (configuration not stated) | 96.1% and 96% and 96.2% | 93% and 81.9% and 90.7% | 92.8% and 94.6% and 101% | 98.3% and 89.7% and 95% | 90.2% and 80.1% and 81.5% | 62.3% and 61% and 68.8% | > 10000 nM | – | – | – | – | – | –
COc1ccc([C@@H](O)c2cc(-c3ncnc4cc(N5CCOCC5)ccc34)c(F)cc2Cl)nn1 | 101% and 95.3% and 86.2% | 85.9% and 92.8% and 85% | 94.8% and 100% and 84.1% | 98.8% and 88.3% and 102% | 86.5% and 77.7% and 79.9% | 91.6% and 78% and 75.7% | > 10000 nM | – | – | – | – | – | –
Cc1[nH]c2ccc(F)cc2c1-c1nc2c3cccnc3c3ncccc3c2[nH]1 | 103% [middle of 12 runs] | 102% [middle of 12 runs] | 100% [middle of 12 runs] | 94.9% [middle of 12 runs] | 86.4% [middle of 12 runs] | 89.3% [middle of 12 runs] | – | – | – | – | – | > 10000 nM | > 10000 nM
Cc1[nH]c2ccccc2c1CCNCc1ccc(/C=C/C(=O)NO)cc1 | 112% and 84.7% and 91.9% | – | 101% and 63.2% and 61.6% | – | – | – | > 316 nM | 105% and 91.6% and 99.8% | 94.6% and 105% and 93.3% | 91.2% and 92.3% and 95.4% | 110% and 81.7% and 79% | – | –
Cc1cccc(N(C)C(=O)C2C(O)CCN2c2nc(C)cc(C(F)(F)F)c2C#N)c1 (configuration not stated) | 93.8% and 107% and 103% | 105% and 93.7% and 99.7% | 106% and 102% and 85.8% | 109% and 97.2% and 108% | 116% and 104% and 109% | 88.7% and 92.6% and 98.5% | > 10000 nM | – | – | – | – | – | –
Cc1cnc(CNC(=O)c2c(=O)c3ccc(N4CCCN(C)CC4)nc3n3c2sc2ccccc23)cn1 | 98.7% [middle of 12 runs] | 93% [middle of 12 runs] | 88.6% [middle of 12 runs] | 81.6% [middle of 12 runs] | 75.7% [middle of 12 runs] | 75.7% [middle of 12 runs] | – | – | – | – | – | – | > 10000 nM
Cn1ncnc1[C@H]1c2n[nH]c(=O)c3cc(F)cc(c23)N[C@@H]1c1ccc(F)cc1 | 87.8% and 102% (2×) | – | 91.2% and 91.9% and 86.3% | – | – | – | > 316 nM | 92.5% and 104% and 94.8% | 84.5% and 91.5% and 115% | 84.5% and 99.1% and 95.4% | 94.9% and 96.3% and 91.8% | – | –
O=C(c1cc(Cc2n[nH]c(=O)c3ccccc23)ccc1F)N1CCN(C(=O)C2CC2)CC1 | 90.9% and 100% and 96.4% | 103% and 97.7% and 97.9% | 94.8% and 86.2% and 99.2% | 98.9% and 98.6% and 98.4% | 123% and 104% and 94.1% | 91.1% and 89.6% and 94.1% | > 10000 nM | – | – | – | – | – | –
